Like-named read-outs stand apart in the source and are kept apart here.
Legend:
[1] = biological target: wild-type human cardiac sodium channel, hNav1.5 (peak INa) (Homo sapiens, UniProt Q14524); assay: Peak INa screening assay (tonic and use-dependent block); format: cell-based
Experimental: The late sodium current (Late INa) and peak sodium current (Peak INa) assays are performed on an automated electrophysiology platform, QPatch 16× (Sophion Bioscience, Copenhagen, Denmark), which uses the whole cell patch clamp technique to measure currents through the cell membrane of up to 16 cells at a time. The assay uses an HEK293 (human embryonic kidney) cell line heterologously expressing the wild-type human cardiac sodium channel, hNav1.5, purchased from Millipore (Billerica, Mass.). No beta subunits were coexpressed with the Na channel alpha subunit. Cells are maintained with standard tissue culture procedures and stable channel expression is maintained with 400 μg/mL Geneticin in the culture medium. […] Experiments are carried out at 23-25° C. For both the Late INa and Peak INa assays, series resistance compensation is set to 100% and series resistance and whole-cell compensation are performed automatically. Currents are digitized at 25 kHz and low-pass filtered at 12 kHz and 10 kHz for the late and peak INa assays, respectively. Currents through open sodium channels are automatically recorded and stored in the Sophion Bioscience Oracle database (Sophion Bioscience, Copehagen, Denmark). Analysis is performed using QPatch Assay and database software and data are compiled in Excel. Compound stocks are routinely made by the Gilead Sample Bank in plastic vials to 10 mM in dimethyl sulfoxide (DMSO). In some cases, when compounds are not soluble in DMSO, they are made in 100% ethanol. Stocks are sonicated as necessary. […] The intracellular solution used to perfuse the inside of the cells for both the Late INa and Peak INa assays contains: 120 mM CsF, 20 mM CsCl, 5 mM EGTA, 5 mM HEPES and pH adjusted to 7.4 with CsOH. Compounds are diluted in extracellular solution to 1 μM in glass vials and then transferred to glass well plates before robotic addition to the cells. […] Compounds were also evaluated for their effect in several other assays, including their effect on Peak INa. Good separation between the concentrations of test compound to reduce late and peak INa is beneficial to enable separation of the desired effect to reduce late INa-induced electrical and mechanical dysfunction from the undesired effect to reduce peak INa, which can lead to slowing or block of conduction of electrical excitation in the heart. It is contemplated that the compounds of Formula I avoid significant block of peak INa. Since the peak INa in the cells used herein can be very large, introducing artifacts in the recording, the concentration of Na^+ in the bath can be reduced to 20 mM and a nonpermeant cation added to compensate for the Na^+ that was removed to maintain the osmolarity and ionic strength of the solution (see solution details below). Analysis of peak INa generally requires correction for rundown before determining the % block of peak current by the tested compound. […] A low stimulation frequency of 0.1 Hz was used to determine the effect of the test compound when the channel spent most of the time in the resting (closed) state and provides information about Tonic Block (TB). A higher stimulation frequency (3 Hz) was used to measure block of the channel when it spent more time in the activated and inactivated states and provided a measure of Use-Dependent Block (UDB). Use-dependent block refers to the accumulation of block with increased frequency of channel activation. Block of cardiac peak INa by compounds of this invention is increased with an increase in the frequency of stimulation from 0.1 to 1-5 Hz (frequencies encountered either in the normal heart or during tachycardia). It is therefore expected that reduction of peak INa by compounds of this invention will be greater at high heart rates, such as those during tachyarrhythmias, than at normal heart rates. […]

[2] = biological target: wild-type human cardiac sodium channel, hNav1.5 (late INa) (Homo sapiens, UniProt Q14524); assay: Late INa screening assay (QPatch whole cell patch clamp); format: cell-based
Method in brief: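 Compounds tested at 1 μM final in extracellular solution against tefluthrin (10 μM)-enhanced late current. Automated patch clamp (23-25° C) on HEK293 expressing alpha subunit alone: −120 mV holding, 250 ms depolarization to −20 mV every 10 s. Read-out is percent inhibition of mean current over 225–250 ms.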

[3] = Microsomal stability assay, dog; format: in vitro ADME; settings: metabolic stability, dog liver microsomes 0.5 mg/mL, substrate 3 uM
Method in brief: (§1)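 Liver microsomes at 0.5 mg/mL protein in 100 mM KPO4 buffer, incubated with 3 uM compound and NADPH-regenerating system, run in duplicate. Samples taken at 2, 12, 25, 45 and 65 min and quenched in MeOH/ACN/water before analysis.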

[4] = Microsomal stability assay, human; format: in vitro ADME; settings: metabolic stability, human liver microsomes 0.5 mg/mL, substrate 3 uM
Method in brief: as §1

[5] = Microsomal stability assay, rat; format: in vitro ADME; settings: metabolic stability, rat liver microsomes 0.5 mg/mL, substrate 3 uM
Method in brief: as §1

[6] = tonic block of peak INa, 0.1 Hz, 1 μM, read-out: Peak TB 1 μM
[7] = use-dependent block of peak INa, 3 Hz, 1 μM, read-out: Peak UDB 1 μM
[8] = percent block of late INa, compound at 1 μM, 10 μM Tefluthrin, HEK293 hNav1.5, read-out: Late INa 1 μM

Sequence of wild-type human cardiac sodium channel, hNav1.5 (late INa) (Q14524 whole entry): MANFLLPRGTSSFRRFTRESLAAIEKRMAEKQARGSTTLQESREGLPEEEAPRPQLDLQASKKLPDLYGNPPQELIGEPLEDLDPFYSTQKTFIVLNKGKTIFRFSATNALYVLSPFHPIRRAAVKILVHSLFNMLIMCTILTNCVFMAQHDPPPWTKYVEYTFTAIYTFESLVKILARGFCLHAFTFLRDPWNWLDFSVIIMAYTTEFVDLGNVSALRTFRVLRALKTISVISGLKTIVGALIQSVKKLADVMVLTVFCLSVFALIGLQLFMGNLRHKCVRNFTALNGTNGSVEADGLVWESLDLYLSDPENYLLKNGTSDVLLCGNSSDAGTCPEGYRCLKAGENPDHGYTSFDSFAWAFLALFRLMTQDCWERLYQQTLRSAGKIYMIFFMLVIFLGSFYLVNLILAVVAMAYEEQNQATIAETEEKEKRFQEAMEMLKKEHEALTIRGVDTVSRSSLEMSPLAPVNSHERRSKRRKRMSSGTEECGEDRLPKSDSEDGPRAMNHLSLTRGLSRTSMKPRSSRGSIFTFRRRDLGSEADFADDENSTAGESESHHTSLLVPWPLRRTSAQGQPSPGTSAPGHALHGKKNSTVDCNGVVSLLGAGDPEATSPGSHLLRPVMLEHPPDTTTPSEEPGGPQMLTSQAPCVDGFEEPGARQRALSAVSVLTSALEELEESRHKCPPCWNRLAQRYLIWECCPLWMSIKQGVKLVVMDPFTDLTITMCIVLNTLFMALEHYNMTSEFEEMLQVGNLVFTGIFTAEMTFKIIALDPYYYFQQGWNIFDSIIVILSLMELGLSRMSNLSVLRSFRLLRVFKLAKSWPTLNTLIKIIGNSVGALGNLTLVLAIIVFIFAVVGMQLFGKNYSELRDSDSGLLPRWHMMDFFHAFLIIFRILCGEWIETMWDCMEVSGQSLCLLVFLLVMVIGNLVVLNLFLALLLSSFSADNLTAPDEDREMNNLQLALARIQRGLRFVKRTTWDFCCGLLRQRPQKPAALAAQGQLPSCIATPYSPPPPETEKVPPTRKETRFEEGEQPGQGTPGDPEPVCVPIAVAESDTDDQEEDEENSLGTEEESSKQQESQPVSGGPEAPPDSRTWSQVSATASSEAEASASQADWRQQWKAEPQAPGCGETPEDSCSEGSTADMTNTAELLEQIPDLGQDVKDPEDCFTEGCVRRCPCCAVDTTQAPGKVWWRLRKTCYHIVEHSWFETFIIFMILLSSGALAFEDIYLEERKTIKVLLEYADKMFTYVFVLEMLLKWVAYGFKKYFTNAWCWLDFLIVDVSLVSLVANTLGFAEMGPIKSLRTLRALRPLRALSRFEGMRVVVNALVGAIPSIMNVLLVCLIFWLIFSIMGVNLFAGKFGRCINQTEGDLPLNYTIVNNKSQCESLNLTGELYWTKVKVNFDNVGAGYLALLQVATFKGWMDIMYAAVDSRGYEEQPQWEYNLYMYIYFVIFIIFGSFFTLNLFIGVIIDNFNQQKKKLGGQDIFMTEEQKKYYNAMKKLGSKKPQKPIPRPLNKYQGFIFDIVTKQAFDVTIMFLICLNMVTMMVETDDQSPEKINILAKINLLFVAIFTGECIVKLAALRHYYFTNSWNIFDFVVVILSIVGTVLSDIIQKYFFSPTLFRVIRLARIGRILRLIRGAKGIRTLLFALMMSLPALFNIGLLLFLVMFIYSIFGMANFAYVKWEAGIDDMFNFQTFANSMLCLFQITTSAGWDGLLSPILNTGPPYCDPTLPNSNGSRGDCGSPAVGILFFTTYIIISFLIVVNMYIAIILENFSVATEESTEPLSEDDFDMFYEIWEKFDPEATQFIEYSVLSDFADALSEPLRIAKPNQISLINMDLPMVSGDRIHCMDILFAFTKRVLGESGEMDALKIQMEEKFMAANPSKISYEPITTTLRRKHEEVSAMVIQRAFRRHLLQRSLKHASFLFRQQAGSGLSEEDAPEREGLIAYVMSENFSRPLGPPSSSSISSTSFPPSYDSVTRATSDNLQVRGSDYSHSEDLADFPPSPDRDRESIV
Sequence of wild-type human cardiac sodium channel, hNav1.5 (peak INa) (Q14524 whole entry): as above

Row | SMILES | inhibition at 1 µM ([1]; % inhibition at 1 μM, tonic block, read-out: NAv1.5*-PEAK-TB-) [%] | inhibition at 1 µM ([1]; % inhibition at 1 μM, use-dependent block 3 Hz, read-out: NAv1.5*-PEAK-UDB-3 HZ-) [%] | inhibition at 1 µM [1, 6] [%] | inhibition at 1 µM [1, 7] [%] | inhibition at 1 µM ([2]; % inhibition at 1 μM, read-out: NAv1.5*-LATE-) [%] | inhibition at 1 µM [2, 8] [%] | MS Dog THalf [3] [min] | MS Human THalf [4] [min] | MS Rat THalf [5] [min] | inhibition at 1 µM ([1]; read-out: Peak TB 1 μM) [%] | inhibition at 1 µM ([1]; read-out: Peak UDB 1 μM) [%]
1 | COC(=O)C1(Cn2nnc3ccc(-c4ccc(OC(F)(F)F)cc4)cc3c2=O)CC1 [II-55, methyl 1-((4-oxo-6-(4-(trifluoromethoxy)phenyl)benzo[d][1,2,3]triazin-3 (4H)-yl)methyl)cyclopropanecarboxylate] | 7 | 3 | 7 | 3 | 58 | 58 | 2 | 14 | 2 | – | –
2 | O=c1c2cc(-c3ccc(OC(F)(F)F)cc3)ccc2nnn1CC1(CN2CCCC2)CC1 [II-63, 3-((1-(pyrrolidin-1-ylmethyl)cyclopropyl)methyl)-6-(4-(trifluoromethoxy)phenyl)benzo[d][1,2,3]triazin-4(3H)-one] | – | – | 23 | 50 | – | 46 | 36 | 34 | 31 | – | –
3 | Cc1cc(C)n(CC2(Cn3nnc4ccc(-c5ccc(OC(F)(F)F)cc5)cc4c3=O)CC2)n1 [II-64, 3-((1-((3,5-dimethyl-1H-pyrazol-1-yl)methyl)cyclopropyl)methyl)-6-(4-(trifluoromethoxy)phenyl)benzo[d][1,2,3]triazin-4(3H)-one] | – | – | 3 | 9 | – | 43 | 7 | 11 | 16 | – | –
4 | Cc1noc(Cn2nnc3ccc(-c4ccc(C5CC5)cc4)cc3c2=O)n1 [II-73, 6-(4-cyclopropylphenyl)-3-((3-methyl-1,2,4-oxadiazol-5-yl)methyl)benzo[d][1,2,3]triazin-4(3H)-one] | – | – | 6 | 1 | – | 45 | 5 | 16 | 29 | – | –
5 | O=c1c2cc(-c3ccc(OC(F)(F)F)cc3)ccc2nnn1CC1(CO)CC1 [II-75, 3-((1-(hydroxymethyl)cyclopropyl)methyl)-6-(4-(trifluoromethoxy)phenyl)benzo[d][1,2,3]triazin-4(3H)-one] | – | – | 11 | 7 | – | 53 | 85 | 371 | 75 | – | –
6 | O=c1c2cc(-c3ccc(OC(F)(F)F)cc3)ccc2nnn1CC1(COc2ncccn2)CC1 [II-80, 3-((1-((pyrimidin-2-yloxy)methyl)cyclopropyl)methyl)-6-(4-(trifluoromethoxy)phenyl)benzo[d][1,2,3]triazin-4(3H)-one] | – | – | – | – | – | 42 | 85 | 49 | 34 | 8 | 7
7 | Cc1cnc(Cn2nnc3ccc(-c4ccc(OC(F)(F)F)cc4)cc3c2=O)o1 [II-96, 3-((5-methyloxazol-2-yl)methyl)-6-(4-(trifluoromethoxy)phenyl)benzo[d][1,2,3]triazin-4(3H)-one] | – | – | 10 | 5 | – | 51 | 81 | 84 | 34 | – | –
8 | Cc1coc(Cn2nnc3ccc(-c4ccc(OC(F)(F)F)cc4)cc3c2=O)n1 [II-97, 3-((4-methyloxazol-2-yl)methyl)-6-(4-(trifluoromethoxy)phenyl)benzo[d][1,2,3]triazin-4(3H)-one] | – | – | 12 | 7 | – | 54 | 63 | 206 | 24 | – | –
9 | Cc1nc(Cn2nnc3ccc(-c4ccc(OC(F)(F)F)cc4)cc3c2=O)co1 [II-99, 3-((2-methyloxazol-4-yl)methyl)-6-(4-(trifluoromethoxy)phenyl)benzo[d][1,2,3]triazin-4(3H)-one] | – | – | 9 | 0 | – | 47 | 62 | 128 | 42 | – | –
10 | O=c1c2cc(-c3ccc(OC(F)(F)F)cc3)ccc2nnn1Cc1coc(C2CC2)n1 [II-100, 3((2-cyclopropyloxazol-4-yl)methyl)-6-(4-(trifluoromethoxy)phenyl)benzo[d][1,2,3]triazin-4(3H)-one] | – | – | 15 | 2 | – | 50 | 76 | 52 | 35 | – | –
11 | O=c1c2cc(-c3ccc(OC(F)(F)F)cc3)ccc2cnn1Cc1nccc(C2CC2)n1 [III-23, 2-((4-cyclopropylpyrimidin-2-yl)methyl)-7-(4-(trifluoromethoxy)phenyl)phthalazin-1 (2H)-one] | – | – | 6 | 12 | – | 51 | 209 | 254 | 42 | – | –
12 | O=c1c2cc(-c3ccc(OC(F)(F)F)cc3)ccc2cnn1Cc1nccc(OCC2CC2)n1 [III-27, 2((4-(cyclopropylmethoxy)pyrimidin-2-yl)methyl)-7-(4-(trifluoromethoxy)phenyl)phthalazin-1 (2H)-one] | – | – | 15 | 15 | – | 52 | 83 | 268 | 43 | – | –
13 | O=c1c2cc(-c3ccc(OC(F)(F)F)cc3)ccc2cnn1CCOc1nccc(C2CC2)n1 [III-29, 2-(2-(4-cyclopropylpyrimidin-2-yloxy)ethyl)-7-(4-(trifluoromethoxy)phenyl)phthalazin-1 (2H)-one] | – | – | 10 | 9 | – | 58 | 18 | 19 | 26 | – | –
14 | COc1ccnc(Cn2ncc3ccc(-c4ccc(OC(F)(F)F)cc4)cc3c2=O)n1 [III-30, 2-((4-methoxypyrimidin-2-yl)methyl)-7-(4-(trifluoromethoxy)phenyl)phthalazin-1 (2H)-one] | – | – | 11 | 12 | – | 56 | 167 | 205 | 70 | – | –
15 | Cc1ccnn1CCn1ncc2ccc(-c3ccc(OC(F)(F)F)cc3)cc2c1=O [III-32, 2-(2-(5-methyl-1H-pyrazol-1-yl)ethyl)-7-(4-(trifluoromethoxy)phenyl)phthalazin-1 (2H)-one] | – | – | 18 | 23 | – | 53 | 16 | 20 | 12 | – | –
